Laboratory results as given in patent US20120328521A1, “FORMULATIONS SUITABLE FOR PET IMAGING WITH HYDROPHOBIC PET AGENTS” (PIRAMAL IMAGING SA, priority 2009, published 2012).

Assays:
Assay type in all cases: physicochemical
[1] = Particulate matter testing of formulation I (HIAC Royco Liquid Particle Counting System); conditions: up to 8 hours
Method: Solubility of the active was tested by visual inspection using an illuminated magnifying glass with black background and confirmed by experiments assessing particulate matter using the HIAC Royco, Liquid Particle Counting System, Model 9703.
The formation of particles was assessed using the HIAC Royco, Liquid Particle Counting System, Model 9703 and in addition to the channels normally inspected (10 μm and 25 μm), also the smaller channels (2 μm and 5 μm) were used to assess the stability of the formulation. The formulation I was sterile filtered and inspected at timepoint 1 hour and 8 hours.
Table 2 indicates the results of particulate matter testing up to 8 hours of 3 individually manufactured batches
Since the handling of the solutions was made under normal laboratory conditions, the particle background measured in the sterile filtered solutions have an exogenous nature.

[2] = Adsorption of compound 1 onto sterile filters (assay in filtrate of formulation II)
Method: Formulation II comprising compound 1 was prepared as indicated above and filtered using selected sterile filters. Adsorption of compound 1 was determined before and after filtration using different filter types. Table 3 indicates the results of adsorption experiments using different filters.
Only hydrophobic filters show a low amount of compound 1 adsorbed onto the filter material.

[3] = Stability of formulation comprising HCl salt of compound 1 for 8 hours at room temperature (HPLC assay); conditions: for assay of HCl salt of compound 1, batch 01 / assay of HCl salt of compound 1, batch 02 / assay of HCl salt of compound 1, batch 03 / assay of HCl salt of compound 1, mean [%]: formulation I, 5.51 μg/mL; for assay of HCl salt of compound 1, mean [%]: mean of 3 batches
Method: Since solutions of stilbenes are light sensitive, the solutions were stored under light protection.
A solution was prepared containing 5.51 μg/mL HCl salt of compound 1 as in formulation I. Assay was analysed after different timepoints. Three individual batches were prepared and analysed for assay and particulate matter. From these solutions samples were taken and analysed by HPLC.
Table 1 indicates the results of stability testing up to 8 hours of 3 individually manufactured batches.

CNc1ccc(/C=C/c2ccc(OCCOCCOCCF)cc2)cc1 [Compound 1]
dissolution state / precipitation in formulation [1]: remains dissolved and is not precipitating
Analysis of assay in filtrate ([2]; Millipore Millex 0.2 μm, Order No SLGV013SL, PVDF, hydrophobic material rendered hydrophilic by surface modification): 97.3%
Analysis of assay in filtrate ([2]; Sartorius Minisart 0.2 μm (blue), Order No 16534, Celluloseacetat, hydrophylic): 53%
Analysis of assay in filtrate ([2]; Sartorius Minisart HY 0.2 μm, Order No 16596, PTFE, hydrophobic): 96.5%
Analysis of assay in filtrate ([2]; Sartorius Minisart High Flow 0.2 μm, Order No 16532, PES, hydrophobic): 75%
amount adsorbed onto the filter material ([2]; only hydrophobic filters): low amount
chemical stability in the formulation ([3]; HCl salt, 8 hours): chemically stable
assay of HCl salt of compound 1, batch 01 ([3]; time 1 hour): 100.2%
assay of HCl salt of compound 1, batch 02 ([3]; time 1 hour): 98.3%
assay of HCl salt of compound 1, batch 03 ([3]; time 1 hour): 96.9%
assay of HCl salt of compound 1, mean [%] ([3]; time 1 hour): 98.5%
assay of HCl salt of compound 1, batch 01 ([3]; time 2 hours): 101.2%
assay of HCl salt of compound 1, batch 02 ([3]; time 2 hours): 98.4%
assay of HCl salt of compound 1, batch 03 ([3]; time 2 hours): 97.17%
assay of HCl salt of compound 1, mean [%] ([3]; time 2 hours): 98.9%
assay of HCl salt of compound 1, batch 01 ([3]; time 3 hours): 101.1%
assay of HCl salt of compound 1, batch 02 ([3]; time 3 hours): 98.7%
assay of HCl salt of compound 1, batch 03 ([3]; time 3 hours): 96.2%
assay of HCl salt of compound 1, mean [%] ([3]; time 3 hours): 98.7%
assay of HCl salt of compound 1, batch 01 ([3]; time 4 hours): 101.2%
assay of HCl salt of compound 1, batch 02 ([3]; time 4 hours): 98%
assay of HCl salt of compound 1, batch 03 ([3]; time 4 hours): 97.4%
assay of HCl salt of compound 1, mean [%] ([3]; time 4 hours): 98.9%
assay of HCl salt of compound 1, batch 01 ([3]; time 5 hours): 101.5%
assay of HCl salt of compound 1, batch 02 ([3]; time 5 hours): 98.6%
assay of HCl salt of compound 1, batch 03 ([3]; time 5 hours): 96.6%
assay of HCl salt of compound 1, mean [%] ([3]; time 5 hours): 98.9%
assay of HCl salt of compound 1, batch 01 ([3]; time 6 hours): 101.5%
assay of HCl salt of compound 1, batch 02 ([3]; time 6 hours): 98.7%
assay of HCl salt of compound 1, batch 03 ([3]; time 6 hours): 95.7%
assay of HCl salt of compound 1, mean [%] ([3]; time 6 hours): 98.6%
assay of HCl salt of compound 1, batch 01 ([3]; time 7 hours): 101.7%
assay of HCl salt of compound 1, batch 02 ([3]; time 7 hours): 98.5%
assay of HCl salt of compound 1, batch 03 ([3]; time 7 hours): 96.5%
assay of HCl salt of compound 1, mean [%] ([3]; time 7 hours): 98.9%
assay of HCl salt of compound 1, batch 01 ([3]; time 8 hours): 102.7%
assay of HCl salt of compound 1, batch 02 ([3]; time 8 hours): 98.7%
assay of HCl salt of compound 1, batch 03 ([3]; time 8 hours): 96.5%
assay of HCl salt of compound 1, mean [%] ([3]; time 8 hours): 99.3%
